Data as given in PubChem BioAssay (NCI).
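Following 48 hours of exposure in 96-well plates, responses at five concentrations were used to interpolate endpoints linearly. TGI marks complete inhibition of growth.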

Experiments:
Assay in all cases: NCI-60 cell line screen, 48 h
OVCAR-5 ovarian = tested on: OVCAR-5 ovarian
TK-10 renal = tested on: TK-10 renal
MDA-MB-435 = tested on: MDA-MB-435
PC-3 prostate = tested on: PC-3 prostate
T-47D breast = tested on: T-47D breast
OVCAR-8 ovarian = tested on: OVCAR-8 ovarian
M14 melanoma = tested on: M14 melanoma
U251 CNS = tested on: U251 CNS
HCT-116 colon = tested on: HCT-116 colon
CAKI-1 renal = tested on: CAKI-1 renal
MDA-MB-231 breast = tested on: MDA-MB-231 breast
K-562 leukemia = tested on: K-562 leukemia
SF-268 CNS = tested on: SF-268 CNS
NCI/ADR-RES ovarian = tested on: NCI/ADR-RES ovarian
HCT-15 colon = tested on: HCT-15 colon
NCI-H23 lung = tested on: NCI-H23 lung
CCRF-CEM leukemia = tested on: CCRF-CEM leukemia
SK-MEL-28 melanoma = tested on: SK-MEL-28 melanoma
OVCAR-4 ovarian = tested on: OVCAR-4 ovarian
HS 578T breast = tested on: HS 578T breast
SNB-75 CNS = tested on: SNB-75 CNS
DU-145 prostate = tested on: DU-145 prostate
SN12C renal = tested on: SN12C renal
SK-OV-3 ovarian = tested on: SK-OV-3 ovarian
MALME-3M melanoma = tested on: MALME-3M melanoma
MOLT-4 leukemia = tested on: MOLT-4 leukemia
RXF 393 renal = tested on: RXF 393 renal
OVCAR-3 ovarian = tested on: OVCAR-3 ovarian
IGROV1 ovarian = tested on: IGROV1 ovarian
SNB-19 CNS = tested on: SNB-19 CNS
HOP-62 NSCLC = tested on: HOP-62 NSCLC
COLO 205 colon = tested on: COLO 205 colon
ACHN renal = tested on: ACHN renal
SK-MEL-5 melanoma = tested on: SK-MEL-5 melanoma
A498 renal = tested on: A498 renal
HOP-92 NSCLC = tested on: HOP-92 NSCLC
UO-31 renal = tested on: UO-31 renal
SW-620 colon = tested on: SW-620 colon
786-0 renal = tested on: 786-0 renal
LOX IMVI melanoma = tested on: LOX IMVI melanoma
UACC-257 melanoma = tested on: UACC-257 melanoma
HT29 colon = tested on: HT29 colon
UACC-62 melanoma = tested on: UACC-62 melanoma
BT-549 breast = tested on: BT-549 breast
A549 NSCLC = tested on: A549 NSCLC
HCC-2998 colon = tested on: HCC-2998 colon
NCI-H522 lung = tested on: NCI-H522 lung
SR leukemia = tested on: SR leukemia
NCI-H226 lung = tested on: NCI-H226 lung
KM12 colon = tested on: KM12 colon
MCF7 breast = tested on: MCF7 breast
SF-539 CNS = tested on: SF-539 CNS
NCI-H460 lung = tested on: NCI-H460 lung
HL-60(TB) leukemia = tested on: HL-60(TB) leukemia
MDA-N = tested on: MDA-N
EKVX NSCLC = tested on: EKVX NSCLC
SK-MEL-2 melanoma = tested on: SK-MEL-2 melanoma
SF-295 CNS = tested on: SF-295 CNS
RPMI-8226 leukemia = tested on: RPMI-8226 leukemia

Measured: TGI

CCCCCCCCCCCCCCCCOCC(Cl)CP(=O)(O)OP(=O)(O)OCC1OC(n2cnc3c(N)ncnc32)C(O)C1O (centres undefined)
not listed: SF-295 CNS | RPMI-8226 leukemia
> 100 µM: all other assays above

CC(C)(C)OC(=O)NCC(=O)NC1CC=CCC1NC(=O)CNC(=O)OC(C)(C)C (centres undefined)
not listed: M14 melanoma | EKVX NSCLC | SK-MEL-2 melanoma
> 100 µM: all other assays above

FC(F)(F)c1ccc2c(c1)nc(-c1ccccc1)n2CC1CCCN2CCCCC12 (centres undefined)
36.2 µM: MDA-N
39.3 µM: NCI-H460 lung
50.8 µM: SNB-75 CNS
31.7 µM: SF-295 CNS
26.3 µM: COLO 205 colon
49.2 µM: SR leukemia
34.3 µM: NCI/ADR-RES ovarian
27.2 µM: MALME-3M melanoma
30.7 µM: 786-0 renal
34.9 µM: BT-549 breast
56.2 µM: U251 CNS
38.8 µM: MCF7 breast
35.3 µM: SK-MEL-28 melanoma
34.1 µM: PC-3 prostate
58.3 µM: K-562 leukemia
32.3 µM: HCC-2998 colon
33.5 µM: SF-268 CNS
65.9 µM: NCI-H226 lung
1.16 µM: UO-31 renal
71.7 µM: T-47D breast
31.8 µM: UACC-257 melanoma
31.9 µM: M14 melanoma
33.8 µM: HL-60(TB) leukemia
66.5 µM: KM12 colon
31.2 µM: UACC-62 melanoma
69.1 µM: A498 renal
31 µM: SF-539 CNS
37.9 µM: OVCAR-8 ovarian
29.4 µM: MDA-MB-231 breast
37.3 µM: SK-OV-3 ovarian
30.6 µM: HCT-116 colon
75.5 µM: RXF 393 renal
38.5 µM: HT29 colon
29.3 µM: SK-MEL-2 melanoma
50.4 µM: IGROV1 ovarian
41.8 µM: TK-10 renal
64 µM: HCT-15 colon
42.3 µM: MDA-MB-435
40.1 µM: OVCAR-3 ovarian
28.1 µM: SK-MEL-5 melanoma
29.1 µM: LOX IMVI melanoma
33.9 µM: HS 578T breast
69.9 µM: SW-620 colon
56.5 µM: ACHN renal
28.7 µM: NCI-H522 lung
65.8 µM: HOP-92 NSCLC
45.5 µM: SN12C renal
not listed: OVCAR-5 ovarian | NCI-H23 lung | CCRF-CEM leukemia
> 100 µM: all other assays above
